Assay results taken from publication PMC9661473.
Each block holds one molecule with its values, some of them ahead of it. Where a SMILES comes first, the peptide text is derived from it.

Legend:
[1] = system: 2N3M (DNA, aptamer) TGGTGGTGGTTGTTGTGGTGGTGGTGGT; test: microscale thermophoresis; details: 100 mM KCl; 25 mM potassium phosphate, pH 7.05, 25 °C, 200 nM aptamer
[2] = system: DNA TA (DNA, aptamer) GGTTGGTGTGGTTGG; test: microscale thermophoresis; details: 100 mM KCl; 25 mM PBS, pH 7.05, 25 °C, 200 nM aptamer
[3] = system: 2N3M (DNA, aptamer) TGGTGGTGGTTGTTGTGGTGGTGGTGGT; test: microscale thermophoresis, Hill fit; details: 100 mM KCl; 25 mM potassium phosphate, pH 7.05, 25 °C, 200 nM aptamer
[4] = system: DNA TA (DNA, aptamer) GGTTGGTGTGGTTGG; test: microscale thermophoresis, Hill fit; details: 100 mM KCl; 25 mM PBS, pH 7.05, 25 °C, 200 nM aptamer
[5] = system: RNA TA (RNA, aptamer) GGUUGGUGUGGUUGG; test: microscale thermophoresis, Hill fit; details: 100 mM KCl; 25 mM PBS, pH 7.05, 40 °C, 200 nM aptamer
[6] = system: DNA TA (unlabeled, NMR) (DNA, aptamer) GGTTGGTGTGGTTGG; test: 1H 1D and 2D NOESY NMR; details: 100 mM KCl; 25 mM potassium phosphate, pH 7.4, 298 K, 10% D2O, 500 μM DNA, 2 equiv YER
[7] = molecular target: T1, YER tripeptide (thrombin loop fragment) (UniProt P00734 434-436); test: MST; 100 mM KCl, 40 C; MST: 200 nM FAM-oligo; 25 mM PBS pH 7.05, 100 mM KCl (DNA TA 25 C, RNA TA 40 C) or 25 mM K-phosphate pH 7.05, 100 mM KCl (2N3M, 25 C), Hill fit; NMR: 500 uM DNA TA, 25 mM K-phosphate pH 7.4, 100 mM KCl, 10% D2O, 298 K; details: label: 5'-FAM; intramolecular G-quadruplex (modelled)
T1 chain: YER

[8] = molecular target: T2, RET tripeptide (nucleolin loop fragment) (UniProt P19338 604-606); test: MST; 100 mM KCl, 25 C; MST: 200 nM FAM-oligo; 25 mM PBS pH 7.05, 100 mM KCl (DNA TA 25 C, RNA TA 40 C) or 25 mM K-phosphate pH 7.05, 100 mM KCl (2N3M, 25 C), Hill fit; NMR: 500 uM DNA TA, 25 mM K-phosphate pH 7.4, 100 mM KCl, 10% D2O, 298 K; details: label: 5'-FAM; intramolecular G-quadruplex
T2 chain: RET

[9] = molecular target: T3, REV tripeptide (RET analogue) (UniProt P19338 604-606, T606V); test: as above; details: label: 5'-FAM; intramolecular G-quadruplex
T3 chain: REV

[10] = molecular target: T4, QET tripeptide (RET analogue) (UniProt P19338 604-606, R604Q); test: as above; details: label: 5'-FAM; intramolecular G-quadruplex
T4 chain: QET

[11] = molecular target: T1, YER tripeptide (thrombin loop fragment); test: as above; details: label: 5'-FAM; intramolecular G-quadruplex
YE dipeptide = molecular target: T5, YE dipeptide (UniProt P00734 434-435); test: as above; details: label: 5'-FAM; intramolecular G-quadruplex
T5 chain: YE

ER dipeptide = molecular target: T6, ER dipeptide (UniProt P00734 435-436); test: as above; details: label: 5'-FAM; intramolecular G-quadruplex
T6 chain: ER

[12] = molecular target: T7, ERN tripeptide (thrombin loop fragment) (UniProt P00734 435-437); test: as above; details: label: 5'-FAM; intramolecular G-quadruplex
T7 chain: ERN

[13] = molecular target: T8, RYE tripeptide (thrombin loop fragment) (UniProt P00734 433-435); test: as above; details: label: 5'-FAM; intramolecular G-quadruplex
T8 chain: RYE

binding [1]: no
Molecule: C[C@@H](O)[C@H](N)C(=O)O

binding [2]: no
binding [1]: no
Molecule: N=C(N)NCCC[C@H](N)C(=O)O

binding [2]: no
binding [1]: no
Molecule: N[C@@H](CCC(=O)O)C(=O)O

binding [2]: no
Molecule: N[C@@H](Cc1ccc(O)cc1)C(=O)O

Kd [3]: 0.1 ± 0.02 µM
Molecule: C[C@@H](O)[C@H](NC(=O)[C@H](CCC(=O)O)NC(=O)[C@@H](N)CCCNC(=N)N)C(=O)O (H-Arg-Glu-Thr-OH)

binding [1]: no
Molecule: CC(C)[C@H](NC(=O)[C@H](CCC(=O)O)NC(=O)[C@@H](N)CCCNC(=N)N)C(=O)O (H-Arg-Glu-Val-OH)

Kd [4]: 52 ± 5 µM
Molecule: N=C(N)NCCC[C@H](N)C(=O)N[C@@H](Cc1ccc(O)cc1)C(=O)N[C@@H](CCC(=O)O)C(=O)O (H-Arg-Tyr-Glu-OH)

binding [1]: no
Molecule: C[C@@H](O)[C@H](NC(=O)[C@H](CCC(=O)O)NC(=O)[C@@H](N)CCC(N)=O)C(=O)O (H-Gln-Glu-Thr-OH)

Kd [4]: 12 ± 1 µM
Molecule: N=C(N)NCCC[C@H](NC(=O)[C@@H](N)CCC(=O)O)C(=O)N[C@@H](CC(N)=O)C(=O)O (H-Glu-Arg-Asn-OH)

binding [2]: no
Molecule: N=C(N)NCCC[C@H](NC(=O)[C@@H](N)CCC(=O)O)C(=O)O (H-Glu-Arg-OH)

binding [2]: no
Molecule: NC(N)=NCCC[C@H](NC(=O)[C@H](CCC(=O)O)NC(=O)[C@@H](N)Cc1ccccc1)C(=O)O (H-Phe-Glu-Arg-OH)

Kd [5]: 37 ± 9 µM
Kd [4]: 5 ± 1 µM
Molecule: N=C(N)NCCC[C@H](NC(=O)[C@H](CCC(=O)O)NC(=O)[C@@H](N)Cc1ccc(O)cc1)C(=O)O (H-Tyr-Glu-Arg-OH)
binding [6]: yes

binding [2]: no
Molecule: NCCCC[C@H](NC(=O)[C@H](CCC(=O)O)NC(=O)[C@@H](N)Cc1ccc(O)cc1)C(=O)O (H-Tyr-Glu-Lys-OH)

binding [2]: no
Molecule: N[C@@H](Cc1ccc(O)cc1)C(=O)N[C@@H](CCC(=O)O)C(=O)O (H-Tyr-Glu-OH)

Molecule: GGUUGGUGUGGUUGG (structured_RNA) [RNA TA (FAM)]
Kd [7]: 37 ± 9 µM

Molecule: TGGTGGTGGTTGTTGTGGTGGTGGTGGT (structured_DNA) [2N3M (AS1411 derivative, FAM)]
Kd [8]: 0.1 ± 0.02 µM
binding result [9]: no binding
binding result [10]: no binding

Molecule: GGTTGGTGTGGTTGG (structured_DNA) [DNA TA (FAM)]
Kd [11]: 5 ± 1 µM
binding result (YE dipeptide): no binding
binding result (ER dipeptide): no binding
Kd [12]: 12 ± 1 µM
Kd [13]: 52 ± 5 µM
